Columns and labels:
annual bluegrass = assay: Test E pre-/postemergence herbicide test; format: in vivo, Poa annua; conditions: Preemergence
Outline: (§1)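 Herbicidal effect scored visually, 0–100 scale, versus controls. Treatments: preemergence on planted seed; postemergence on 2–18 cm seedlings. Greenhouse, 12 to 14 days.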

Italian ryegrass [1] = assay: Test C postemergence herbicide test; format: in vivo, Lolium multiflorum
Outline: (§2)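 Plants were grown to the 1- to 4-leaf stage (2–18 cm) and then treated postemergence, or grown to the 2-leaf stage for the flooded paddy test. They were held in a greenhouse for 12 to 14 days and then scored by eye against controls, where 0 is no effect and 100 is complete control.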

blackgrass = assay: Test C postemergence herbicide test; format: in vivo, Alopecurus myosuroides
Outline: as §2

common chickweed = assay: Test E pre-/postemergence herbicide test; format: in vivo, Stellaria media; conditions: Preemergence
Outline: as §1

prickly sida = assay: Test E pre-/postemergence herbicide test; format: in vivo, Sida spinosa; conditions: Preemergence
Outline: as §1

downy bromegrass = assay: Test C postemergence herbicide test; format: in vivo, Bromus tectorum
Outline: as §2

common mallow = assay: Test E pre-/postemergence herbicide test; format: in vivo, Malva sylvestris; conditions: Preemergence
Outline: as §1

mustard = assay: Test E pre-/postemergence herbicide test; format: in vivo, Brassica nigra; conditions: Preemergence
Outline: as §1

tropical spiderwort = assay: Test E pre-/postemergence herbicide test; format: in vivo, Commelina benghalensis; conditions: Preemergence
Outline: as §1

wild oat = assay: Test C postemergence herbicide test; format: in vivo, Avenafatua
Outline: as §2

Italian ryegrass [2] = assay: Test E pre-/postemergence herbicide test; format: in vivo, Lolium multiflorum; conditions: Preemergence
Outline: as §1

pitted morningglory = assay: Test E pre-/postemergence herbicide test; format: in vivo, Ipomoea lacunosa; conditions: Preemergence
Outline: as §1

Canada horseweed = assay: Test E pre-/postemergence herbicide test; format: in vivo, Erigeron Canadensis; conditions: Preemergence
Outline: as §1

windgrass = assay: Test C postemergence herbicide test; format: in vivo, Apera spica-venti
Outline: as §2

[3] = 250 g ai/ha, scale 0 (no effect) to 100 (complete control)
[4] = 500 g ai/ha, scale 0 (no effect) to 100 (complete control)
[5] = postemergence, 125 g ai/ha, scale 0 to 100
[6] = postemergence, 62 g ai/ha, scale 0 to 100
[7] = Postemergence, 250 g ai/ha, scale 0 to 100, 0 no effect, 100 complete control
[8] = postemergence, 31 g ai/ha, scale 0 to 100
[9] = Postemergence, 500 g ai/ha, scale 0 to 100, 0 no effect, 100 complete control

For `Cc1nn(C(C)(C)C)nc1C(=O)Nc1cccc(C(=O)N2CC=CC2)c1` [Compound 393], which “Plant response rating, Bluegrass” value (annual bluegrass; 62 g ai/ha, scale 0 to 100) is on record?
Its value is 10.

And the “Plant response rating, Bluegrass” value (annual bluegrass; 125 g ai/ha, scale 0 to 100)?
Its value is 30.

What about the “Plant response rating, Bluegrass” value (annual bluegrass; [3]) of the same molecule?
Its value is 75.

What about the “Plant response rating, Bluegrass” value (annual bluegrass; [4]) of the same molecule?
Its value is 95.

And the “Plant response rating, Ryegrass, Italian” value (Italian ryegrass [1]; [5])?
Its value is 60.

What about the “Plant response rating, Ryegrass, Italian” value (Italian ryegrass [1]; [6]) of the same molecule?
The value was 55.

What about the “Plant response rating, Blackgrass” value (blackgrass; [7]) of the same molecule?
The value was 65.

And the “Plant response rating, Blackgrass” value (blackgrass; [5])?
Its value is 60.

What about the “Plant response rating, Blackgrass” value (blackgrass; [8]) of the same molecule?
The value was 55.

What about the “Plant response rating, Blackgrass” value (blackgrass; [6]) of the same molecule?
The value was 60.

What about the “Plant response rating, Chickweed” value (common chickweed; 125 g ai/ha, scale 0 to 100) of the same molecule?
Its value is 60.

And the “Plant response rating, Chickweed” value (common chickweed; [3])?
The value was 100.

And the “Plant response rating, Chickweed” value (common chickweed; [4])?
The value was 100.

And the “Plant response rating, Prickly Sida” value (prickly sida; 62 g ai/ha, scale 0 to 100)?
The value was 30.

And the “Plant response rating, Prickly Sida” value (prickly sida; 125 g ai/ha, scale 0 to 100)?
Its value is 70.

What about the “Plant response rating, Prickly Sida” value (prickly sida; [3]) of the same molecule?
The value was 75.

What about the “Plant response rating, Prickly Sida” value (prickly sida; [4]) of the same molecule?
Its value is 100.

What about the “Plant response rating, Bromegrass, Downy” value (downy bromegrass; [7]) of the same molecule?
Its value is 55.

And the “Plant response rating, Bromegrass, Downy” value (downy bromegrass; [5])?
The value was 45.

What about the “Plant response rating, Bromegrass, Downy” value (downy bromegrass; [8]) of the same molecule?
The value was 40.

And the “Plant response rating, Bromegrass, Downy” value (downy bromegrass; [6])?
The value was 40.

What about the “Plant response rating, Mallow” value (common mallow; 62 g ai/ha, scale 0 to 100) of the same molecule?
The value was 10.

What about the “Plant response rating, Mallow” value (common mallow; 125 g ai/ha, scale 0 to 100) of the same molecule?
The value was 60.

What about the “Plant response rating, Mallow” value (common mallow; [3]) of the same molecule?
The value was 95.

And the “Plant response rating, Mallow” value (common mallow; [4])?
Its value is 95.

And the “Plant response rating, Black Mustard” value (mustard; 62 g ai/ha, scale 0 to 100)?
Its value is 10.

What about the “Plant response rating, Black Mustard” value (mustard; 125 g ai/ha, scale 0 to 100) of the same molecule?
Its value is 80.

What about the “Plant response rating, Black Mustard” value (mustard; [3]) of the same molecule?
Its value is 95.

And the “Plant response rating, Black Mustard” value (mustard; [4])?
Its value is 95.

And the “Plant response rating, Spiderwort” value (tropical spiderwort; 125 g ai/ha, scale 0 to 100)?
Its value is 100.

And the “Plant response rating, Spiderwort” value (tropical spiderwort; [3])?
Its value is 100.

And the “Plant response rating, Spiderwort” value (tropical spiderwort; [4])?
Its value is 100.

And the “Plant response rating, Oat, Wild” value (wild oat; [5])?
Its value is 65.

What about the “Plant response rating, Oat, Wild” value (wild oat; [6]) of the same molecule?
The value was 55.

And the “Plant response rating, Ryegrass, Italian” value (Italian ryegrass [2]; 62 g ai/ha, scale 0 to 100)?
Its value is 10.

What about the “Plant response rating, Ryegrass, Italian” value (Italian ryegrass [2]; 125 g ai/ha, scale 0 to 100) of the same molecule?
The value was 20.

And the “Plant response rating, Ryegrass, Italian” value (Italian ryegrass [2]; [3])?
Its value is 85.

And the “Plant response rating, Ryegrass, Italian” value (Italian ryegrass [2]; [4])?
The value was 85.

And the “Plant response rating, Morningglory” value (pitted morningglory; 62 g ai/ha, scale 0 to 100)?
Its value is 0.

What about the “Plant response rating, Morningglory” value (pitted morningglory; 125 g ai/ha, scale 0 to 100) of the same molecule?
Its value is 60.

What about the “Plant response rating, Morningglory” value (pitted morningglory; [3]) of the same molecule?
Its value is 95.

What about the “Plant response rating, Morningglory” value (pitted morningglory; [4]) of the same molecule?
Its value is 95.

And the “Plant response rating, Horseweed” value (Canada horseweed; 62 g ai/ha, scale 0 to 100)?
The value was 90.

What about the “Plant response rating, Horseweed” value (Canada horseweed; 125 g ai/ha, scale 0 to 100) of the same molecule?
Its value is 95.

What about the “Plant response rating, Horseweed” value (Canada horseweed; [3]) of the same molecule?
Its value is 100.

And the “Plant response rating, Horseweed” value (Canada horseweed; [4])?
The value was 100.

What about the “Plant response rating, Windgrass” value (windgrass; [5]) of the same molecule?
Its value is 55.

What about the “Plant response rating, Windgrass” value (windgrass; [6]) of the same molecule?
The value was 45.

What does the source list for `C=CCNC(=O)c1cccc(NC(=O)c2nn(C(C)(C)C)nc2CC)c1` [Compound 414]?
Plant response rating, Ryegrass, Italian (Italian ryegrass [1]; [9]): 60; Plant response rating, Ryegrass, Italian (Italian ryegrass [1]; [5]): 55; Plant response rating, Ryegrass, Italian (Italian ryegrass [1]; [6]): 50; Blackgrass plant response rating (blackgrass; Postemergence, 500 g ai/ha, scale 0 to 100): 60; Plant response rating, Blackgrass (blackgrass; [7]): 45; Plant response rating, Blackgrass (blackgrass; [5]): 40; Plant response rating, Blackgrass (blackgrass; [6]): 40; Plant response rating, Bromegrass, Downy (downy bromegrass; [7]): 55; Plant response rating, Bromegrass, Downy (downy bromegrass; [9]): 60; Plant response rating, Bromegrass, Downy (downy bromegrass; [5]): 45; Plant response rating, Bromegrass, Downy (downy bromegrass; [6]): 40; Plant response rating, Oat, Wild (wild oat; [9]): 55; Plant response rating, Oat, Wild (wild oat; [5]): 45; Plant response rating, Oat, Wild (wild oat; [6]): 35; Plant response rating, Windgrass (windgrass; [9]): 65; Plant response rating, Windgrass (windgrass; [5]): 60; Plant response rating, Windgrass (windgrass; [6]): 55
